From ChEMBL document CHEMBL1140528, “A novel flavonoid from Lespedeza virgata (Thunb.) DC.: structural elucidation and antioxidative activity” (Bioorg Med Chem Lett, 2007)
≈ marks a conversion by molar mass, not a printed value. Calls of active or inactive are those of the source. No cut-off for these calls is given here.

What was measured:
Assay type in all cases: functional
[1] = Antioxidant activity assessed as superoxide radical anion scavenging activity at 0.5 mg/ml by hypoxanthine NBT method
[2] = Antioxidant activity assessed as superoxide radical anion scavenging activity at 0.2 mg/ml by hypoxanthine NBT method
[3] = Antioxidant activity assessed as superoxide radical anion scavenging activity by hypoxanthine NBT method

IC50 [3]	SMILES	Activity [1]	Activity [2]
	C[C@@H]1O[C@@H](Oc2c(-c3ccc(O)cc3)oc3cc(O)cc(O)c3c2=O)[C@H](O)[C@H](O)[C@H]1O	29.9%	
	O=c1c(O[C@@H]2O[C@H](CO)[C@@H](O)[C@H](O)[C@H]2O)c(-c2ccc(O)cc2)oc2cc(O)cc(O)c12	51.7%	
0.14 mg/mL (≈ 312 µM)	COc1cc2c(cc1[C@@H]1CC(=O)c3c(O)c(C)c4c(c3O1)C=CC(C)(C)O4)C=CC(C)(C)O2	95.8%	Active
	C[C@@H]1O[C@@H](Oc2cc(O)c3c(=O)c(O[C@@H]4O[C@@H](C)[C@H](O)[C@@H](O)[C@H]4O)c(-c4ccc(O)cc4)oc3c2)[C@H](O)[C@H](O)[C@H]1O	17.6%	
	C[C@@H]1O[C@@H](Oc2c(-c3ccc(O)c(O)c3)oc3cc(O)cc(O)c3c2=O)[C@H](O)[C@H](O)[C@H]1O	88.9%	
	O=c1c(O)c(-c2ccc(O)c(O)c2)oc2cc(O[C@@H]3O[C@H](CO)[C@@H](O)[C@H](O)[C@H]3O)cc(O)c12	71.7%	
